One data set has as its system patients with MF. The data set is described as follows: Phase 2 spleen response (volume by MRI, length by physical examination). The class given is in vivo, human. The note with it: phase 2, 400 mg QD. How it is done: In phase 2, abdominal MRI to assess spleen and liver volume was performed on day 1 of cycles 1, 4, and 7 and then day 1 of every third cycle through cycle 25. Spleen size (length) was also assessed by manual palpation with each scheduled physical examination. The phase 2 study protocol was amended in September 2009 to include the MF Quality of Life and Symptoms Assessment Tool. […] The instrument was administered pre-dose on day 1 of cycles 1, 2, 4, 7, and 10 and then on day 1 of every third cycle through cycle 25.
The primary endpoint of the phase 2 component was the proportion of the efficacy population who achieved a ≥35% reduction in spleen volume from baseline at week 24, as measured by MRI. Spleen response rate was also assessed in terms of a ≥35% reduction in spleen volume by MRI up to week 24 and end of treatment and as a ≥50% reduction in spleen length by physical examination up to week 24 and end of treatment. Duration of response was not analyzed due to limitations in the proportion of responders. An exploratory endpoint was the proportion of patients with a ≥50% reduction in MF Quality of Life and Symptoms Assessment Tool at week 24 compared with baseline.
The planned sample size of 29 patients for the phase 2 component provided 80% power to detect a spleen response rate of ≥30% versus the null hypothesis of a response rate of ≤10%, with α = 0.05 (two-sided). The efficacy-evaluable population included those patients with a baseline and corresponding follow-up value. The safety population included all enrolled patients who received ≥1 dose of pacritinib.

The subject of data set [1] is patients with advanced myeloid malignancies. The data set is described as follows: Phase 1 dose escalation: dose-limiting toxicities and MTD. The class given is in vivo. How it is done: Phase 1 was a 3 + 3 dose-escalation study. Three to six patients were enrolled at each dose level, depending upon observed dose-limiting toxicities (DLTs) in the cohort. Each patient participated in only one cohort. Oral pacritinib was administered to the first cohort at 100 mg once daily (QD) for 25 consecutive days in a 28-day cycle in cycle 1, with 3 days of rest for pharmacokinetic (PK) sampling, followed by continuous 28-day dosing for the remaining cycles. Subsequent cohorts received escalating pacritinib dose levels of 150, 200, 300, 400, 500, and 600 mg QD. All patients at each dose level were observed through the end of the first cycle before the next dose level could begin treatment. […]
The primary objective of phase 1 was to establish the MTD of pacritinib in patients with advanced myeloid malignancies, defined as the highest dose level at which no more than one out of six patients in the cohort experienced a DLT during cycle 1 (25 days) of therapy. […] Clinical benefit rate was assessed as an exploratory endpoint, defined as the proportion of patients who experienced a complete response, partial response, clinical improvement, or stable disease (SD) during the study.

Molecules are shown by their SMILES.

For the molecule `C1=C/COCc2cc(ccc2OCCN2CCCC2)Nc2nccc(n2)-c2cccc(c2)COC/1` [pacritinib, 11-(2-pyrrolidin-1-yl-ethoxy)-14,19-dioxa-5,7,26-triaza-tetracyclo[19.3.1.1(2,6). 1(8,12)]heptacosa-1(25),2(26),3,5,8,10,12(27),16,21,23-decaene], the “Evaluable patients achieving ≥35% spleen volume reduction by MRI (primary endpoint)” value with patients with MF (at week 24 (4/17)) was found to be 23.5%. Further, the “Patients achieving ≥50% spleen length reduction by physical examination” value with patients with MF (at week 24 (9/19)) is 47.4%; with patients with MF (up to end of treatment (12/31)), 38.7%. In addition, the “Patients achieving ≥35% spleen volume reduction by MRI” value in the data set on patients with MF (up to end of treatment (7/23)) amounted to 30.4%. In addition, the “Recommended phase 2 dose” value in data set [1] (human, in vivo) is 400 mg QD. Further, the “Maximum tolerated dose (MTD)” value in data set [1] (phase 1, oral) came out at 500 mg QD.

Values taken from paper PMC5146859, “Phase 1/2 study of pacritinib, a next generation JAK2/FLT3 inhibitor, in myelofibrosis or other myeloid malignancies” (Journal of Hematology & Oncology, 2016).
